These results are taken from patent US20090176983A1, “Tenofovir Disoproxil Hemi-Fumaric Acid Co-Crystal” (ULTIMORPHIX TECHNOLOGIES B.V., priority 2007, published 2009).

A short description of data set [1]: Dynamic Vapour Sorption (DVS) moisture sorption isotherm. The format is physicochemical. The conditions noted are these: for total uptake of water vapours: DVS, 25° C., relative humidity 0% to 95% in steps of 5%, 1 h per step. Here is the method: Moisture sorption isotherms were measured using a DVS-1 system of Surface Measurement Systems (London, UK). Differences in moisture uptake of various forms of a solid material indicate differences in the relative stabilities of the various solid forms for increasing relative humidity. The experiment was carried out at a constant temperature of 25° C.
A sample of about 11.5 mg of form TDFA 2:1 was spread in the DVS pan. The sample was dried at 0% RH for 7 h. Subsequently the relative humidity of the chamber was increased in steps of 5% units from 0% to 95% in order to monitor the sorption of water vapours. The samples remained in each of the steps for 1 h. Following, desorption was monitored by decreasing the relative humidity to 0% in steps of 5% units and remaining at each step for 1 h. The total uptake of water vapours was about 0.8%, which is line with the industry standard for hygroscopicity. In a similar DVS experiment using the starting material as purchased, the total vapour intake was about 4%, which is undesirable in formulation and requires additional measures.

Data set [2] can be described thus: Comparative pharmacokinetic study of TDFA 2:1 and ULT 1 (plasma tenofovir by LC-MS-MS). The format is in vivo, Male wistar rats. The conditions noted are these: rats, one capsule of approximately 15 mg by oral gavage; compared with fumarate salt form ULT 1; FIG. 5. The text has this: The plasma samples were further worked up for analysis by LC-MS-MS for their content of tenofovir. […] The concentration of tenofovir (the active metabolite of tenofovir DF) was quantified in each sample by means of LC-MS-MS against a calibration curve. From the PK data it is concluded that the hemifumarate co-crystal of tenofovir disoproxil, TDFA 2:1 is bioequivalent to the fumarate salt of tenofovir disoproxil form ULT 1, which is a commercially available fumarate salt of tenofovir disoproxil.

[3] abbreviates: summary statement, versus Gilead 1.

As for `CC(C)OC(=O)OCOP(=O)(CO[C@H](C)Cn1cnc2c(N)ncnc21)OCOC(=O)OC(C)C.O=C(O)/C=C/C(=O)O` [starting material, 9-[(R)-2-[[bis[[(isopropoxycarbonyl)oxy]methoxy]phosphinyl]-methoxy]propyl]adenine fumarate (1:1), reference compound], in data set [1], the “total uptake of water vapours” value is on record as “about 4%”.

Regarding “co-crystal of tenofovir disoproxil and fumaric acid in a 2:1 molar ratio [TDFA 2:1]”, in data set [1], the “total uptake of water vapours” value is “about 0.8%”. Also, in data set [1] (solid material after the sorption-desorption cycle, FIG. 4), the “changes in the structure by XRPD at the end of the DVS experiment” value is on record as “no any changes in the structure”. In data set [1] (setting [3]), the “hygroscopicity compared with known crystalline form of tenofovir DF (Gilead 1)” value is “less hygroscopic” and the “stability compared with known crystalline form of tenofovir DF (Gilead 1)” value was “more stable”. Also, the “bioequivalence from PK data (concentration of tenofovir in plasma)” value in data set [2] is “bioequivalent”.
